Reference: PMC3495175 (Bioorganic & medicinal chemistry, 2012)

Tests used:
MtMetAP1a = MtMetAP1a (Mycobacterium tuberculosis, UniProt P9WK21); assay: MtMetAP1a coupled enzyme assay; assay type: biochemical; conditions: for IC50: IC50 (µM), MtMetAP 1a, 200 nM enzyme; for Inhibition of MtMetAP1a (in words): both metalloforms (Co2+, Mn2+)
MtMetAP1c = MtMetAP1c (Mycobacterium tuberculosis, UniProt P9WK19); assay: MtMetAP1c coupled enzyme assay; assay type: biochemical; conditions: for IC50: IC50 (µM), MtMetAP 1c, 100 nM enzyme
[1] = Co2+, Co2+ cofactor (10 µM CoCl2)
[2] = Mn2+, Mn2+ cofactor (10 µM MnCl2)

Sequence of MtMetAP1c (P9WK19 whole entry): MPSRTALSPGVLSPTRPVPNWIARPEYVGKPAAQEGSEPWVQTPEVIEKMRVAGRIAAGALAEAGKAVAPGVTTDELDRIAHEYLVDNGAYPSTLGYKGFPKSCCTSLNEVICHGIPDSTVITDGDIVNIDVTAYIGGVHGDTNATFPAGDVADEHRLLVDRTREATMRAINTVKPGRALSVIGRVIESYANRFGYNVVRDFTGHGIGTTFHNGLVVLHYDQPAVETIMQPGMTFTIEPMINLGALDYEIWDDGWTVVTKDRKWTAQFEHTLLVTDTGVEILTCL
Sequence of MtMetAP1a (P9WK21 whole entry): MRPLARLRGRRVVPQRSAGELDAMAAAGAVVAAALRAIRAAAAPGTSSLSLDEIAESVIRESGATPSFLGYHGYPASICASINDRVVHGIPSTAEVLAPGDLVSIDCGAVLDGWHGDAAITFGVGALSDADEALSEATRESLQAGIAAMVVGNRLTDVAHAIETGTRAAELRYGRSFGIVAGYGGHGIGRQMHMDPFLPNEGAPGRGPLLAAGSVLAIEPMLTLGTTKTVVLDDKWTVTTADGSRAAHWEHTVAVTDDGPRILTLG

SMILES	IC50 (MtMetAP1a; [1])	IC50 (MtMetAP1a; [2])	IC50 (MtMetAP1c; [1])	IC50 (MtMetAP1c; [2])	Inhibition of MtMetAP1a (in words) (MtMetAP1a)	Inhibition of MtMetAP1c (in words) (MtMetAP1c)
COc1ccc2c(c1)CCc1sc(N)nc1-2 [3o, reference compound]	> 50 µM	> 50 µM	> 50 µM	> 50 µM	–	–
O/N=C\Nc1nc2c(s1)CCc1cc3c(cc1-2)OCO3 [4f]	–	> 20 µM	–	–	–	–
Nc1nc2c(s1)CCc1ccccc1-2 [3n, reference compound]	> 50 µM	> 50 µM	> 50 µM	> 50 µM	–	–
COc1ccc2c(c1)CCc1sc(NC(C)=O)nc1-2 [3p, reference compound]	> 50 µM	> 50 µM	> 50 µM	> 50 µM	–	–
COc1ccc2c(c1)Cc1sc(N/C=N\O)nc1-2 [4l]	> 50 µM	> 50 µM	> 50 µM	> 50 µM	–	–
COc1ccc2c(c1)OCc1sc(N/C=N\O)nc1-2 [4g]	–	–	> 50 µM	> 50 µM	moderate inhibition	did not inhibit
CCCCCCCCC(=O)Nc1nc2c(s1)CCc1cc(OC)ccc1-2 [3r, reference compound]	> 50 µM	> 50 µM	> 50 µM	> 50 µM	–	–
COc1ccc2c(c1)-c1nc(NC=NO)sc1CC2 [4b, N'-hydroxy-N-(8-methoxy-4H,5H-naphtho[1,2-d]thiazol-2-yl)methanimidamide]	–	> 50 µM	–	–	–	–
COc1ccc2c(c1)OC(c1ccccc1)c1sc(N/C=N\O)nc1-2 (stereo not shown) [4i]	–	–	> 50 µM	> 50 µM	moderate inhibition	did not inhibit
COc1ccc(-c2csc(N/C=N\O)n2)cc1OC [4m]	> 20 µM	> 20 µM	–	–	–	moderate potency
COc1ccc2c(c1)CCc1sc(/N=C/c3ccco3)nc1-2 [3t]	> 50 µM	> 50 µM	> 50 µM	> 50 µM	–	–
COc1cc2c(cc1OC)-c1nc(N/C=N\O)sc1CC2 [4e]	–	–	–	> 50 µM	–	–
COc1ccc2c(c1)CCc1sc(N/C=N\O)nc1-2 [4c, N'-hydroxy-N-(7-methoxy-4H,5H-naphtho[1,2-d]thiazol-2-yl)methanimidamide]	–	> 50 µM	–	> 50 µM	–	–
CN(C)/C=N/c1nc2c(s1)CCc1ccccc1-2 [3a]	–	–	–	> 50 µM	–	–
CCCCCCCCC(=O)Nc1nc2c(s1)CCc1ccccc1-2 [3q, reference compound]	> 50 µM	> 50 µM	> 50 µM	> 50 µM	–	–
O/N=C\Nc1nc2c(s1)CCc1ccccc1-2 [4a]	–	> 50 µM	–	> 50 µM	–	–
O/N=C\Nc1nc2c(s1)CCCc1cc3c(cc1-2)OCO3 [4j]	–	> 50 µM	–	–	–	–
COc1ccc2c(c1)CCc1sc(NC(=O)[C@H](C)O)nc1-2 [3s, (S)-2-Hydroxy-N-(7-methoxy-4H,5H-naphtho[1,2-d]thiazol-2-yl)propanamide]	> 50 µM	> 50 µM	> 50 µM	> 50 µM	–	–
O/N=C\Nc1nc2c(s1)COc1cc3c(cc1-2)OCO3 [4h]	–	> 10 µM	–	–	–	–
COc1ccc2c(c1)CCc1sc(/N=C/c3ccccc3O)nc1-2 [3v]	> 50 µM	> 50 µM	> 50 µM	> 50 µM	–	–
COc1ccc2c(c1)CCc1sc(NCc3ccco3)nc1-2 [3u, N-(Furan-2-ylmethyl)-7-methoxy-4H,5H-naphtho[1,2-d]thiazol-2-amine]	> 50 µM	> 50 µM	> 50 µM	> 50 µM	–	–
